System: VDR and Smad3
Test: GST-pull down analysis of VDR and Smad3 interaction (cell-free)
Format: binding
Settings: FIG. 5
Procedure: GST fused Smad3 or VDR (full length peptide 1-424, partial peptides: amino acid sequence 115-424, 115-357, 115-300 and others, see FIG. 4) fused proteins (GST-Smad3 or GST-VDR) were expressed by using E.coli, and were captured on beads with glutatione-Sepharose bead (Pharmacia) to accomplish affinity purification. On the other hand, ^35S-methionine-labeled Smad3 and VDR were prepared in cell-free system by using reticulocyte lysate translation system (Promega). GST-Smad3 or GST-VDR fixed on beads described above was incubated with ^35S-methionine labeled VRD or Smad3. By using polyacrylamide gel electrophoresis, ^35S-methionine labeled VDR or Smad3 were analyzed.

Structure (SMILES): C=C1/C(=C\C=C2/CCC[C@]3(C)[C@@H]([C@H](C)CCCC(C)(C)O)CC[C@@H]23)C[C@@H](O)C[C@@H]1O [1,25(OH)2VD3]
- binding of full length VDR to Smad3 in the presence of ligand (1 nM): slightly bound
- ligand requirement of binding of VDR partial peptides 115-357 and 115-300 to Smad3: did not require

Reference: patent US6855507B2, “Method of screening for pharmaceuticals by detecting cross talk between intracellular signals and intranuclear receptors” (Chugai Seiyaku Kabushiki Kaisha, priority 1998, dated 2005)
